The record followed here is ChEMBL document CHEMBL2321681, “Design, synthesis, and evaluation of imidazo[4,5-c]pyridin-4-one derivatives with dual activity at angiotensin II type 1 receptor and peroxisome proliferator-activated receptor-γ” (Bioorg Med Chem Lett, 2013).

Data set [1] concerns the target T1, Type-1 angiotensin II receptor (Homo sapiens, UniProt P30556).
T1 sequence (P30556 whole entry): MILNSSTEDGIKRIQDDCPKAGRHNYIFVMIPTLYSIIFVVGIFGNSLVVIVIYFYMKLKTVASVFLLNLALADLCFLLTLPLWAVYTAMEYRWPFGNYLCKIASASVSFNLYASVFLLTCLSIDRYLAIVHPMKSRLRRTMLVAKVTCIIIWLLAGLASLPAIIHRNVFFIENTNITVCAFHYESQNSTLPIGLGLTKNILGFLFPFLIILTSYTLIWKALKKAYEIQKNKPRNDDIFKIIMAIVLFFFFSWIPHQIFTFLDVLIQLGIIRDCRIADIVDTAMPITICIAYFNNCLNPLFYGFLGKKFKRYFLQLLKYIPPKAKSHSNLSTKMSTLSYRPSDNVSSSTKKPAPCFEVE

Data set [2] has as its target T2, Peroxisome proliferator-activated receptor gamma (Homo sapiens, UniProt P37231).
T2 sequence (P37231 whole entry): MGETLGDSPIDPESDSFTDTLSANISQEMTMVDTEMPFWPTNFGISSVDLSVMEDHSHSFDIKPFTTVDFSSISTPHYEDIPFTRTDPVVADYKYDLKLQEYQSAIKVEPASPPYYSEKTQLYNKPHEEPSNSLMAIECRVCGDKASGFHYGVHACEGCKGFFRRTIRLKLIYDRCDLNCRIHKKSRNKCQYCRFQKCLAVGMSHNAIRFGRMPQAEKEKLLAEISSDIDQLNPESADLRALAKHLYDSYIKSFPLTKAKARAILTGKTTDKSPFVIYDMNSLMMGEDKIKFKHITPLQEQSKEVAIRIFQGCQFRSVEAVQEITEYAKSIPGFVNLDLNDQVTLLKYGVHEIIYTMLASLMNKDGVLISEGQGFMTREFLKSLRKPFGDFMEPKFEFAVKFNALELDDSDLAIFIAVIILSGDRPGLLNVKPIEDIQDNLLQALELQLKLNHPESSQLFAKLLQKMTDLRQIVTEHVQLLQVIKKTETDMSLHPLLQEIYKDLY
In words: Partial agonist activity at human PPARgamma-LBD/Gal4 DNA binding domain by transactivation assay.

In data set [3] the target is Cytochrome P450 3A4 (Homo sapiens, UniProt P08684). In words: Inhibition of CYP3A4 (unknown origin). In kind it is ADME.
Data set [4] is described as follows: Octanol-buffer distribution co-efficient, log D of the compound by shake-flask method. It is filed as physicochemical.
Data set [5] in a line: Intrinsic clearance in human liver microsomes.
Data set [6] in a line: Permeability of the compound by PAMPA. In kind it is ADME. The settings on record: read-out: permeability.
Data set [7] deals with Cytochrome P450 2D6 (Homo sapiens, UniProt P10635). The data set is described as follows: Inhibition of CYP2D6 (unknown origin). It is filed as ADME.
Data set [8] in a line: Kinetic solubility of the compound in potassium phosphate buffer at pH 6.5. The settings on record: read-out: Kinetic_solubility. In kind it is physicochemical.
The target of data set [9] is T3, Peroxisome proliferator-activated receptor alpha (Homo sapiens, UniProt Q07869).
T3 sequence (Q07869 whole entry): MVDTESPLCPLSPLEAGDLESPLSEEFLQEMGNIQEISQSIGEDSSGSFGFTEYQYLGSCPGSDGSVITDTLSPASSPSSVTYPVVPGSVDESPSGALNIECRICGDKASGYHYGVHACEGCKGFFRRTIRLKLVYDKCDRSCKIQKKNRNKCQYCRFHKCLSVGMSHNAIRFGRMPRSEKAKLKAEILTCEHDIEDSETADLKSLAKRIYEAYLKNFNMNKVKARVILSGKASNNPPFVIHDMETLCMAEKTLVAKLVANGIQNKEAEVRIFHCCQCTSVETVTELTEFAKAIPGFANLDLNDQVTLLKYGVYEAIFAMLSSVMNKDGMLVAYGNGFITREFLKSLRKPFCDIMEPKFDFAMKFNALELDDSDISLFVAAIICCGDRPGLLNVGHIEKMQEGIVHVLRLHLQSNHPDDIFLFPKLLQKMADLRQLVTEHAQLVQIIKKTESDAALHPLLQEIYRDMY
In words: Agonist activity at PPARalpha (unknown origin).

Data set [10] deals with T4, Peroxisome proliferator-activated receptor delta (Homo sapiens, UniProt Q03181).
T4 sequence (Q03181 whole entry): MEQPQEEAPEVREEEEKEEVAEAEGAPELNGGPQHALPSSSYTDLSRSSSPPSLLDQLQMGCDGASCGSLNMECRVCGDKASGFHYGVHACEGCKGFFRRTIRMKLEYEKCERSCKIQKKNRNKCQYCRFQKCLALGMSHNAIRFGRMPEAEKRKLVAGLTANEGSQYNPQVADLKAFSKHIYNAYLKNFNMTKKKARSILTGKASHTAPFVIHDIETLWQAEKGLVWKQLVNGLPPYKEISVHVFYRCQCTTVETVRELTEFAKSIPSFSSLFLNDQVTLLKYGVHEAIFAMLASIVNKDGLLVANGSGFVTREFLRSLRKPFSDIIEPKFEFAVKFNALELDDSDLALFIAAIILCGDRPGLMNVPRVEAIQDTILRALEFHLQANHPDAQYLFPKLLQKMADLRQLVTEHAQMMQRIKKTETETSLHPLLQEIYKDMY
In words: Agonist activity at PPARbeta (unknown origin).

Values after ≈ are worked out from the molar mass of the structure shown.

Cytochrome P450 3A4, sequence (P08684 whole entry): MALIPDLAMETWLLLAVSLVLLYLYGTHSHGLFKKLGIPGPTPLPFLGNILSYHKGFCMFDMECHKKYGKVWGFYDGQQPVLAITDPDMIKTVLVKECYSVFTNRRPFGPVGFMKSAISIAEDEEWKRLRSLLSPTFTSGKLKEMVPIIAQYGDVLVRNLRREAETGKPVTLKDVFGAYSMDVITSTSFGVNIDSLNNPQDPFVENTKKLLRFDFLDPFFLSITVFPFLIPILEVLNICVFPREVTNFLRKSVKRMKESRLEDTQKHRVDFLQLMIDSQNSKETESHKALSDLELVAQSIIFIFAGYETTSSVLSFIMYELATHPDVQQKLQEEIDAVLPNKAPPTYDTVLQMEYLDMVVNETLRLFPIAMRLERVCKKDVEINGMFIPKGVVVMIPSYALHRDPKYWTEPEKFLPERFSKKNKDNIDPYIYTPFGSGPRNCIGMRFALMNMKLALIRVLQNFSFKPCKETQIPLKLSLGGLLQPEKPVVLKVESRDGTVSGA
Cytochrome P450 2D6, sequence (P10635 whole entry): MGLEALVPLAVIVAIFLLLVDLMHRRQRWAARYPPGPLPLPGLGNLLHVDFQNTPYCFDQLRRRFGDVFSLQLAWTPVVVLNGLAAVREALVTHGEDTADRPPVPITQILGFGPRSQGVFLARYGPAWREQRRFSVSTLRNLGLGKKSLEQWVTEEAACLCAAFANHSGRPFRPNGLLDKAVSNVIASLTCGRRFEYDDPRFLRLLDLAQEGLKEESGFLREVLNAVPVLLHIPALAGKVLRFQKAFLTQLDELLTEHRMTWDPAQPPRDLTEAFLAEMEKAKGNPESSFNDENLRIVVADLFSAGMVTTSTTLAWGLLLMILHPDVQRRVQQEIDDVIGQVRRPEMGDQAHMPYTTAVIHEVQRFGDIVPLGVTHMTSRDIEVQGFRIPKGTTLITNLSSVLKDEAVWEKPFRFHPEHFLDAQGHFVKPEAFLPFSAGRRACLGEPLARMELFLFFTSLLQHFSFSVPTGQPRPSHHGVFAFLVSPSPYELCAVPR

The compound `CCc1nc2ccn(Cc3cccnc3)c(=O)c2n1[C@H]1CCc2cc(-c3ccccc3-c3nnn[nH]3)ccc21` displayed an IC50 in data set [1] of 45.2 nM. In [2], this compound showed an EC50 of 3640 nM.

In the case of `CCc1nc2ccn(Cc3ccncc3)c(=O)c2n1[C@H]1CCc2cc(-c3ccccc3-c3nnn[nH]3)ccc21`, the IC50 in data set [1] came to 250 nM. Also, the EC50 in data set [2] was greater than 25000 nM.

In turn, `CCc1nc2ccn(Cc3c(C)noc3C)c(=O)c2n1[C@H]1CCc2cc(-c3ccccc3-c3nnn[nH]3)ccc21` gave a half-inhibitory concentration (IC50) in data set [1] of 63.4 nM. Also, the EC50 in data set [2] was 4470 nM.

As to `CCc1nc2c(C)cn(Cc3ccccc3C)c(=O)c2n1[C@H]1CCc2cc(-c3ccccc3-c3nnn[nH]3)ccc21`, the “inhibition (INH)” value in [3] is 3.5%; in [7], 4.5%. The logD in data set [4] amounted to 2.9. Further, the microsomal CLint in [5] was 37.5 µL/min/mg. This compound also returned an IC50 in [1] of 6.8 nM. The compound also had an EC50 in data set [2] of 42 nM. Moreover, the Papp in data set [6] is 7 ×10⁻⁶ cm/s.

With `CCc1nc2c(C)cn(Cc3ccccc3C#N)c(=O)c2n1[C@H]1CCc2cc(-c3ccccc3-c3nnn[nH]3)ccc21`, the “inhibition (INH)” value in [3] and in data set [7] was 0% throughout. Further, the solubility kinetic in data set [8] was determined as 5.2 µM (≈ 2.87 µg/mL). For the same compound, the pH-dependent lipophilicity (logD) in [4] turned out to be 2.5. Further, the microsomal CLint in data set [5] turned out to be 20.7 µL/min/mg. In [1], the IC50 came out at 7 nM. A half-maximal effect in [2] (EC50) was put at 295 nM. Further, in data set [6], the Papp stood at 19 ×10⁻⁶ cm/s.

Compound `CCc1nc2cc[nH]c(=O)c2n1[C@H]1CCc2cc(-c3ccccc3-c3nnn[nH]3)ccc21` gave an IC50 in data set [1] of 593 nM. The 50% effective concentration (EC50) in [2] was greater than 100000 nM.

In the case of `CCc1nc2ccn(Cc3ccccc3)c(=O)c2n1[C@H]1CCc2cc(-c3ccccc3-c3nnn[nH]3)ccc21`, the EC50 in [9] was greater than 50000 nM; in [10], greater than 50000 nM; in [2], 292 nM. Further, the half-maximal inhibitory concentration (IC50) in data set [1] stood at 12.7 nM.

`CCc1nc2ccn(CC(=O)N(C)C)c(=O)c2n1[C@H]1CCc2cc(-c3ccccc3-c3nnn[nH]3)ccc21`: it took 24.4 nM to reach half-maximal inhibition in [1] (IC50). Also, the concentration giving a half-maximal response (EC50) in data set [2] was greater than 100000 nM.

With `CCc1nc2ccn(CC(=O)OCc3ccccc3)c(=O)c2n1[C@H]1CCc2cc(-c3ccccc3-c3nnn[nH]3)ccc21`, in data set [1], the IC50 turned out to be 19.8 nM. For the same compound, in data set [2], the midpoint of the response, the EC50, lay at 1250 nM.

In the case of `CCc1nc2ccn(CC(=O)O)c(=O)c2n1[C@H]1CCc2cc(-c3ccccc3-c3nnn[nH]3)ccc21`, the IC50 in [1] came out at 348 nM. In addition, the EC50 in data set [2] was greater than 100000 nM.

Turning to `CCc1nc2ccn(CC(C)C)c(=O)c2n1[C@H]1CCc2cc(-c3ccccc3-c3nnn[nH]3)ccc21`, the IC50 in data set [1] was found to be 19.4 nM. This compound also registered an EC50 in data set [2] of 1710 nM.

`CCc1nc2ccn(CC3CCCCC3)c(=O)c2n1[C@H]1CCc2cc(-c3ccccc3-c3nnn[nH]3)ccc21` showed an IC50 in data set [1] of 41 nM. Besides, the concentration giving a half-maximal response (EC50) in [2] was determined as 942 nM.

Take `CCc1nc2ccn(Cc3ccccc3F)c(=O)c2n1[C@H]1CCc2cc(-c3ccccc3-c3nnn[nH]3)ccc21`: 37.7 nM corresponded to half-maximal inhibition in data set [1] (IC50). In addition, the EC50 in [2] amounted to 103 nM.

As to `CCc1nc2ccn(Cc3ccccc3C)c(=O)c2n1[C@H]1CCc2cc(-c3ccccc3-c3nnn[nH]3)ccc21`, the “inhibition (INH)” value amounted to 14% in [3] and 6% in data set [7]. The solubility kinetic in data set [8] turned out to be 3.5 µM (≈ 1.85 µg/mL). Besides, the log distribution coefficient (logD) in data set [4] is 2.6. In data set [5], this compound yielded an intrinsic metabolic clearance (microsomal CLint) of 32.6 µL/min/mg. In addition, in data set [1], the concentration for half-maximal inhibition (IC50) was 5.1 nM. In data set [2], it took 97 nM to reach a half-maximal effect (EC50). In addition, the Papp in data set [6] came to 3.6 ×10⁻⁶ cm/s.

Take `CCc1nc2ccn(Cc3ccccc3C#N)c(=O)c2n1[C@H]1CCc2cc(-c3ccccc3-c3nnn[nH]3)ccc21`: the “inhibition (INH)” value in [3] came out at 31%; in [7] it was 11%. Moreover, the solubility kinetic in [8] worked out at 11.7 µM (≈ 6.3 µg/mL). This compound also gave a logD in data set [4] of 1.7. The microsomal CLint in data set [5] came to 14 µL/min/mg. Also, in data set [1], half-maximal inhibition (IC50) was put at 13.5 nM. In data set [2], this compound came in with a concentration giving a half-maximal response (EC50) of 685 nM. Also, the Papp in data set [6] amounted to 10.7 ×10⁻⁶ cm/s.

In the case of `CCc1nc2ccn(Cc3ccccc3C(F)(F)F)c(=O)c2n1[C@H]1CCc2cc(-c3ccccc3-c3nnn[nH]3)ccc21`, 94.1 nM corresponded to half-maximal inhibition in data set [1] (IC50). This compound displayed an EC50 in data set [2] of 187 nM.

`CCc1nc2ccn(Cc3ccccc3OC(F)(F)F)c(=O)c2n1[C@H]1CCc2cc(-c3ccccc3-c3nnn[nH]3)ccc21` registered an IC50 in data set [1] of 29.3 nM. The compound also yielded an EC50 in data set [2] of 20 nM.

The compound `CCc1nc2ccn(Cc3cccc(F)c3)c(=O)c2n1[C@H]1CCc2cc(-c3ccccc3-c3nnn[nH]3)ccc21` yielded an IC50 in data set [1] of 67.4 nM. The same compound yielded an EC50 in data set [2] of 159 nM.

Compound `CCc1nc2ccn(Cc3cccc(C)c3)c(=O)c2n1[C@H]1CCc2cc(-c3ccccc3-c3nnn[nH]3)ccc21` displayed a 50% inhibitory concentration (IC50) in [1] of 36.9 nM. This compound gave an EC50 in data set [2] of 108 nM.

On to `CCc1nc2ccn(Cc3cccc(C(F)(F)F)c3)c(=O)c2n1[C@H]1CCc2cc(-c3ccccc3-c3nnn[nH]3)ccc21`, for which the IC50 in data set [1] is 81.6 nM. Moreover, it took 449 nM to reach a half-maximal effect in data set [2] (EC50).

On to `CCc1nc2ccn(Cc3ccccn3)c(=O)c2n1[C@H]1CCc2cc(-c3ccccc3-c3nnn[nH]3)ccc21`, for which, in data set [1], the IC50 was determined as 63.8 nM. In data set [2], the EC50 was 3580 nM.

What is called IC50 is the concentration that inhibits the measured activity by half. Low values mean greater potency, high ones weaker potency. For orientation: EC50 means the concentration that produces a half-maximal response. Read a high EC50 as lower potency in that assay. A word on the logD: it is lipophilicity at a set pH, counting ionised and neutral species. Low values mean a more hydrophilic compound, high ones a more lipophilic compound. Broadly, the microsomal CLint is the capacity of the preparation to metabolise the compound, expressed as a volume cleared per time. A high value points to rapid turnover.
